Laboratory results as given in publication PMC12383145, “Fluorescent Peptides Internalize HeLa Cells and Kill Multidrug-Resistant Clinical Bacterial Isolates” (Antibiotics, 2025).
Where “and” joins values, the source holds several entries; their conditions need not be identical. Equal entries are not always repeated. Where two headings read alike, the source gives them in different places. No end group written: not given here.

Assays:
Type in all cases: cell-based
[1] = tested on: HeLa cells; assay: MTT cytotoxicity assay in HeLa cells; settings: HeLa cells, 200 µg/mL; listed as palindromic peptide
Protocol: (§1) MTT assays were conducted in HeLa cells to evaluate the effect of fluorescent probe incorporation on the in vitro cytotoxic activity of the parent non-conjugated peptides. The cytotoxic effect of peptides 1, Abz-1 RhB-1, 2, and RhB-2 in HeLa cells was peptide concentration-dependent, with the highest anticancer activity observed at 200 µg/mL. Incorporation of 2-Abz and RhB at the N-terminal end reduced cytotoxic activity, while the binding of 2-Abz at the C-terminal end or FAM at the N-terminal end drastically diminished anticancer activity (Table 4).

[2] = MTT cytotoxicity assay in HeLa cells; settings: HeLa cells, MTT; read-out: Cytotoxic Activity (IC50)
Protocol: as §1

[3] = tested on: clinical isolates of S. aureus; settings: stated for the S. aureus clinical isolates together
Protocol: E. coli isolates 1004 (susceptible), 129797 (resistant), and 301755 (MDR) were selected for evaluation. Isolate 1004 was sensitive to all antibiotics tested. […] These findings identify it as a multidrug-resistant (MDR) strain and an extended-spectrum beta-lactamase (ESBL)-producing bacterium. For S. aureus, isolates 109095, 117719, and 124653 were evaluated. All three were resistant to penicillin, indicating beta-lactamase production mediated by the blaZ gene. Studies have shown that up to 90% of S. aureus isolates worldwide are penicillin-resistant, which implies that this antibiotic is ineffective in infections caused by this pathogen. […] Isolate 124653 was resistant to penicillin, tetracycline, and erythromycin, with the latter belonging to the group of macrolides, antibiotics that inhibit protein synthesis through interaction with the 50S rRNA subunit. […]
The minimum inhibitory concentration (MIC) of the peptides was determined by the broth microdilution technique, according to the Clinical and Laboratory Standards Institute (CLSI) guidelines, as previously described. […] Serial dilutions of the peptides to be evaluated in 96-well plates were made in 90 µL of Mueller Hinton broth at concentrations ranging from 200 to 6.25 µg/mL, and 10 µL of the inoculum adjusted to 5 × 10^6 CFU/mL was added. Finally, the plates were incubated at 37 °C for 24 h, and the absorbance at 620 nm was read. […]

[4] = tested on: E. faecalis clinical isolate 179; settings: E. faecalis clinical isolate 179
Protocol: (§2) E. coli isolates 1004 (susceptible), 129797 (resistant), and 301755 (MDR) were selected for evaluation. Isolate 1004 was sensitive to all antibiotics tested. […] These findings identify it as a multidrug-resistant (MDR) strain and an extended-spectrum beta-lactamase (ESBL)-producing bacterium. For S. aureus, isolates 109095, 117719, and 124653 were evaluated. All three were resistant to penicillin, indicating beta-lactamase production mediated by the blaZ gene. Studies have shown that up to 90% of S. aureus isolates worldwide are penicillin-resistant, which implies that this antibiotic is ineffective in infections caused by this pathogen. […] Isolate 124653 was resistant to penicillin, tetracycline, and erythromycin, with the latter belonging to the group of macrolides, antibiotics that inhibit protein synthesis through interaction with the 50S […] subunit. For E. faecalis three isolates were selected: strains 213 (sensitive to all the antibiotics tested), strain 82 (resistant to streptomycin), and strain 179 (resistant to gentamicin). These clinical isolates were selected to assess the antimicrobial activity of the peptide RWQWRWQWR and its analogues conjugated to fluorescent molecules in strains against strains with susceptibility profiles.
(§3) The analysis of synthesized peptides in ATCC reference strains and susceptible, resistant, and multidrug-resistant (MDR) clinical isolates was performed. The clinical isolates were obtained from the National Cancer Institute collection and were previously identified and antibiogrammed using the VITEK system. Additionally, the strains were characterized by MALDI-TOF. The strains were re-primed onto trypticase soy agar and subsequently preserved in Brain–Heart Infusion (BHI) broth containing 20% glycerol. For the MIC and MBC assays, the strains were reactivated and cultured in BHI until they reached their exponential growth phase.
(§4) The minimum inhibitory concentration (MIC) of the peptides was determined by the broth microdilution technique, according to the Clinical and Laboratory Standards Institute (CLSI) guidelines, as previously described. Briefly, bacterial strains were incubated in BHI broth at 37 °C until they reached the exponential growth phase, and inocula were adjusted to 5 × 10^6 CFU/mL using calibration curves. Serial dilutions of the peptides to be evaluated in 96-well plates were made in 90 µL of Mueller Hinton broth at concentrations ranging from 200 to 6.25 µg/mL, and 10 µL of the inoculum adjusted to 5 × 10^6 CFU/mL was added. Finally, the plates were incubated at 37 °C for 24 h, and the absorbance at 620 nm was read. As a negative control, CMH, distilled water, and 10 µL of inoculum were used; for the positive control, vancomycin was used for Gram-positive strains and ciprofloxacin for Gram-negative strains at the MICs dictated by the CLSI; as a technical control, CMH with peptone water was used, and for the growth control, CMH was used with 10 µL of inoculum.
(§5) To determine the minimum bactericidal concentration (MBC), the 96-well plates where the MIC was determined were used as a starting point. From these, an aliquot of the controls and those wells where no apparent bacterial growth was observed were spotted onto trypticase soy agar plates. The plates were incubated at 37 °C for 24 h, and the reading was taken, identifying the lowest concentration of the peptide where there was no bacterial growth as the MBC.

[5] = tested on: S. aureus clinical isolate 109095; settings: S. aureus clinical isolate 109095
Protocol: as §2, §3, §4, §5

[6] = tested on: E. coli clinical isolate 301755 (MDR); settings: E. coli clinical isolate 301755
Protocol: as §2, §3, §4, §5

[7] = tested on: S. aureus clinical isolate 124653; settings: S. aureus clinical isolate 124653
Protocol: as §2, §3, §4, §5

[8] = tested on: E. coli clinical isolate 129797 (resistant); settings: E. coli clinical isolate 129797
Protocol: as §2, §3, §4, §5

[9] = tested on: E. faecalis clinical isolate 82; settings: E. faecalis clinical isolate 82
Protocol: as §2, §3, §4, §5

[10] = tested on: E. faecalis clinical isolate 213; settings: E. faecalis clinical isolate 213
Protocol: as §2, §3, §4, §5

[11] = tested on: clinical isolates of E. coli; settings: stated for the E. coli clinical isolates together
Protocol: as §2, §3, §4, §5

[12] = tested on: E. coli clinical isolate 1004 (susceptible); settings: E. coli clinical isolate 1004
Protocol: as §2, §3, §4, §5

[13] = tested on: S. aureus clinical isolate 11719; settings: S. aureus clinical isolate 11719
[14] = Hemolysis assay
Protocol: Whole blood was collected into EDTA tubes and centrifuged at 2500 rpm for 10 min. The plasma and buffy coat were removed, and the erythrocytes were washed three times with 0.9% saline to yield a 4% cell suspension. In 96-well plates, 100 µL of peptide dilutions (6.25–200 µg/mL) were prepared in triplicate, and 100 µL of the erythrocyte suspension was added (final hematocrit 2%). Plates were incubated at 37 °C for 2 h, and then centrifuged again at 2500 rpm for 10 min. A 100 µL aliquot of the supernatant was transferred to a fresh plate, and absorbance was measured at 450 nm. Saline and 1× Triton X-100 served as the negative and positive controls, respectively. Hemolysis (%) was calculated as follows: %hemolysis=treatment absorbance−saline absorbance/1×triton absorbance−saline absorbance

[15] = tested on: P. aeruginosa ATCC 27853; settings: P. aeruginosa ATCC 27853
Protocol: as §4, §5

[16] = tested on: S. aureus ATCC 25923; settings: S. aureus ATCC 25923
Protocol: as §4, §5

[17] = tested on: E. coli ATCC 25922; settings: E. coli ATCC 25922
Protocol: as §4, §5

[18] = tested on: K. pneumoniae ATCC 700603; settings: K. pneumoniae ATCC 700603
Protocol: as §4, §5

[19] = tested on: E. faecalis ATCC 29212; settings: E. faecalis ATCC 29212
Protocol: as §4, §5

Substance: RWQWRWQWR-NH2 [peptide 1, RWQWRWQWR]
- cell viability [1]: about 20%
- IC50 [2]: 77 µg/mL and 52 µM
- MIC [3]: 135 µM
- Minimal bactericidal concentration (MBC) [4]: 135 µM
- Minimal inhibitory concentration (MIC) [4]: 135 µM
- Minimal bactericidal concentration (MBC) [5]: 135 µM
- Minimal inhibitory concentration (MIC) [5]: 135 µM
- Minimal bactericidal concentration (MBC) [6]: 67 µM
- Minimal inhibitory concentration (MIC) [6]: 34 µM
- Minimal bactericidal concentration (MBC) [7]: > 135 µM
- Minimal inhibitory concentration (MIC) [7]: 135 µM
- Minimal inhibitory concentration (MIC) [8]: 34/34 µM
- Minimal bactericidal concentration (MBC) [9]: 67/67 µM
- Minimal bactericidal concentration (MBC) [10]: 135 µM
- Minimal inhibitory concentration (MIC) [10]: 135 µM
- MIC [11]: 17 to 34 µM
- Minimal bactericidal concentration (MBC) [12]: > 135 µM
- Minimal inhibitory concentration (MIC) [12]: 17 µM
- Minimal bactericidal concentration (MBC) [13]: > 135 µM
- Minimal inhibitory concentration (MIC) [13]: 135 µM
- hemolysis ([14]; at 200 µg/mL (highest tested concentration), 2 h, 37 °C, read-out: hemolysis): 4.5%
- hemolysis ([14]; at the lowest MIC concentration, read-out: Percentage of hemolysis): 1.1%
- selectivity ratio ([14]; peptide concentration at 10% hemolysis / IC50 in HeLa cells, read-out: Selectivity index): > 3
- Minimal bactericidal concentration (MBC) [15]: > 135 µM
- Minimal inhibitory concentration (MIC) [15]: 67 µM
- Minimal bactericidal concentration (MBC) [16]: 34 µM
- Minimal inhibitory concentration (MIC) [16]: 17 µM
- Minimal bactericidal concentration (MBC) [17]: 34 µM
- Minimal inhibitory concentration (MIC) [17]: 17 µM
- Minimal bactericidal concentration (MBC) [18]: 135 µM
- Minimal inhibitory concentration (MIC) [18]: 67 µM
- Minimal bactericidal concentration (MBC) [19]: > 135 µM
- Minimal inhibitory concentration (MIC) [19]: 135 µM
